Where no end group is shown, it is not given here.
Tests used:
HaCaT cells = assay: Proliferation of HaCaT cells (CCK8); assay type: cell-based, human; settings: 0.2-0.8 μg/mL; 24 h, 48 h and 72 h; 1% serum
Description: Experimental method: Immortalized human keratinocytes (HaCaT cells) was adjusted to a concentration of 1.0×10^5 to 5.0×10^5/mL for passaging, and they were cultured at 37° C. and 5% CO2 for 24-36 h for biological activity detection. The cells were digested with 0.25% trypsin for 5 min, 1640 whole blood culture medium, the volume of which was not less than 1 time of the volume of the trypsin, was added to stop digestion, a cell suspension was collected, centrifuged at 1000 RPM for 3 min, the supernatant was discarded, 2 mL of 1640 whole blood culture medium was added to suspend the cells, 20 μL of the cell suspension was taken and stained with AOPI, the concentration of cells in the suspension was then detected by a cell counter, the suspension was prepared to a concentration of 5×10^4/mL with 1640 culture medium containing serum at a concentration of 10% and inoculated into a 96-well cell culture plate, with 100 μL per well, i.e., 5000 cells/well, and the plate was cultured at 37° C. and 5% CO2 overnight.
After 24 h, the original culture medium was discarded, and 100 μL of polypeptide compound solutions with different concentrations prepared with 1640 culture medium containing serum at a concentration of 1% were added, such that the final concentrations of the polypeptide compounds to be tested were 0.2, 0.4 and 0.8 ug/mL, respectively. In addition, an EGF control group was prepared by adding 100 μL of a recombinant human epidermal growth factor (EGF) solution prepared with 1640 culture medium containing serum at a concentration of 1%, with the final concentration being 100 ng/ml. In the model control group, an equal volume of 1640 culture medium containing serum at a concentration of 1% was added. After culturing at 37° C. and 5% CO2 for 24 h, 48 h and 72 h, the proliferation of the HaCaT cell line was detected by means of CCK8 kit.

[1] = system: acute mechanical skin injury in rats; assay: Healing effect on acute mechanical skin injury in rats; assay type: in vivo; settings: for promoting wound healing (in words): 40 μg/cm^2; for wound healing rate, 5 days / wound healing rate, 10 days / wound healing rate, 14 days: polypeptide 40 μg/cm^2, Jinyintai 40 IU/cm^2, topical once daily, in % (unit assumed)
Description: SPF grade SD rats, weighing 180-230 g, were raised in respective clean sterilized cages, with water, feed and padding replacement given regularly every day. The feeding temperature was kept at 22° C. and the humidity was 55-65%. They were raised for one week for acclimatization. According to a random grouping method, the animals were divided into a model control group (normal saline), a Jinyintai control group (40 IU/cm^2, Shenzhen Watsin Genetech Ltd.) and a test polypeptide treatment group (40 μg/cm^2), with 6 animals in each group. After the rats were successfully anesthetized by intraperitoneal injection of 3% pentobarbital sodium, the hair within 1 cm around the edge of the wound was cut off, and the wound area was disinfected first with iodophor and then with 75% alcohol locally. A round full-thickness skin wound of 1.5 cm×1.5 cm (i.e., 1.5 cm in diameter) was made near the neck at 4 cm down to the back from the middle of the connecting line of the ears, with the spine as the midline. It went deep into the muscle layer, forming an animal model of acute mechanical injury. After modeling, the rats were raised in individual cages with the wounds exposed. During dressing replacement, the rats were all first debrided with iodophor, and then, the wound was washed with sterile normal saline and wiped dry. Except the model group, the wounds of the rats in the other groups were locally coated with 40 μL of the corresponding drug solution once daily. On days 0, 5, 10 and 14 of administration, the wound images of the rats in each group were taken, and the wound area was calculated by means of an image analysis software (Image J). According to the formula, the wound healing rate was obtained.

FGFR1 = FGFR1 (Homo sapiens, UniProt P11362); assay: FGFR receptor binding assay: ultrafiltration/mass spectrometry affinity screening to FGFR1 protein target; settings: ratio of lower-layer to upper-layer compound MS signal intensity; the greater the ratio, the stronger the affinity
Sequence of FGFR1 (P11362 22-822, species assumed): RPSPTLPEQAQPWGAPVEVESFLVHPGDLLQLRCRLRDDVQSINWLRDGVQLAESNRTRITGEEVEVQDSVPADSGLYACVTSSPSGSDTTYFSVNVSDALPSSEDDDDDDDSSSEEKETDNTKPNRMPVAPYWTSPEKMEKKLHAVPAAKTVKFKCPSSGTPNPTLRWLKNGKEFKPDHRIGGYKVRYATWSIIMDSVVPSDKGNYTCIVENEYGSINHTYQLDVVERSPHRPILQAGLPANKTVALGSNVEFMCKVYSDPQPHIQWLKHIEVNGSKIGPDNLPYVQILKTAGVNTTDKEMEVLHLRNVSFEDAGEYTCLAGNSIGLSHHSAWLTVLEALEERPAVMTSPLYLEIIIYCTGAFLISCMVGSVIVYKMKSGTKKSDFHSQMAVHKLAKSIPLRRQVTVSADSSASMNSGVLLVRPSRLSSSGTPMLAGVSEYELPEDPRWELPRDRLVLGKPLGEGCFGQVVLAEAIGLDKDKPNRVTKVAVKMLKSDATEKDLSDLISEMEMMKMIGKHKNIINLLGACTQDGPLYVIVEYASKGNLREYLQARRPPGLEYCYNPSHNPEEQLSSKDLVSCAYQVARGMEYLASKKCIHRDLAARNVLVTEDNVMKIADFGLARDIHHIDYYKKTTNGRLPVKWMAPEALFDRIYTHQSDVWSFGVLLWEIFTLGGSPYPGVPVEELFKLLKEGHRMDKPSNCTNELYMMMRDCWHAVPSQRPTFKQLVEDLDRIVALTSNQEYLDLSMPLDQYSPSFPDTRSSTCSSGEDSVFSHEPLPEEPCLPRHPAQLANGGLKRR
Description: The affinity of the polypeptide compound prepared by the present invention to FGFR1 was tested by using a control FGFR1 allosteric inhibitor (product number SSR128129E from Sigma) as a positive compound control.
Screening for the affinity to FGFR1 was as follows: FGFR1 solutions with an appropriate concentration were taken, the positive compound SSR128129E (Sigma) at an appropriate concentration and sample solutions of the inventive polypeptide compounds, as freeze-dried powders, dissolved in protein buffers were then respectively added. After incubation at room temperature for 50 min, ultrafiltration and screening were carried out to obtain various treated solutions. An appropriate volume of acetonitrile was added to each treated solution to precipitate a protein, the solution was then centrifuged, and the supernatant was taken and analyzed by mass spectrometry.
Affinity screening conditions: One-dimensional liquid-phase conditions were: chromatographic column; PolyLC chromatographic column, mobile phase A: KH2PO4, NaCl, pH 7.5, mobile phase B: acetonitrile, column temperature: 8° C., flow rate: 1 mL/min, and injection volume: appropriate; and two-dimensional liquid-phase conditions were: chromatographic column: BONUS RRHD, mobile phase A: 0.1% formic acid aqueous solution, mobile phase B: 0.1% formic acid in acetonitrile, column temperature: 60° C., flow rate: 0.3 mL/min, and injection volume: 40 uL. Gradient elution was used, i.e., 98% A (0-1 min), 98-10% A (1-6 min), 10% A (6-7.5 min), 10-98% A (7.5-8 min), and 98% A (8-9.5 min). Mass spectrometry conditions: Agilent 6530 Q-Tof, ESI ion source, voltage 3.5 KV, mass-to-charge ratio scanning range m/z=200-3000, acquisition mode: positive ion scanning, ion source temperature: 350° C., solvent removal temperature: 300° C., and nitrogen flow rate: 8 L/min.

Sequence | effect on proliferation of HaCaT cells (HaCaT cells) | promoting wound healing (in words) [1] | wound healing rate, 5 days [1] | wound healing rate, 10 days [1] | wound healing rate, 14 days [1] | Cb/Ct range (FGFR1)
AAVLDKLE [Compound 68] | proliferation-promoting effect | trend of promoting wound healing | 29.26 ± 6.46 | 60.97 ± 2.87 | 88.42 ± 4.79 | 1.0-3
SMQASLEAEAKGKAE [Compound 1] | proliferation-promoting effect | trend of promoting wound healing | 31.68 ± 3.48 | 63.20 ± 3.87 | 91.43 ± 2.87 | 1.0-3
VDAAVLEKLE [Compound 67] | proliferation-promoting effects | trend of promoting wound healing | 30.40 ± 3.35 | 61.42 ± 5.73 | 90.87 ± 3.94 | 1.0-3
